Measured values taken from PubChem BioAssay (NCI).
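These data come from cells grown in 96-well plates and exposed to compound for 48 hours at five concentrations. GI50 marks 50% less growth. TGI: concentration producing complete growth inhibition.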

Legend:
Assay in all cases: growth of human tumour cells (NCI), 48 h
HCT-116 colon = test system: HCT-116 colon
RPMI-8226 leukemia = test system: RPMI-8226 leukemia
MDA-MB-231 breast = test system: MDA-MB-231 breast
SNB-19 CNS = test system: SNB-19 CNS
786-0 renal = test system: 786-0 renal
SF-295 CNS = test system: SF-295 CNS
HCT-15 colon = test system: HCT-15 colon
UACC-62 melanoma = test system: UACC-62 melanoma
NCI-H522 lung = test system: NCI-H522 lung
OVCAR-8 ovarian = test system: OVCAR-8 ovarian
TK-10 renal = test system: TK-10 renal
ACHN renal = test system: ACHN renal
SN12C renal = test system: SN12C renal
SR leukemia = test system: SR leukemia
HT29 colon = test system: HT29 colon
MCF7 breast = test system: MCF7 breast
MOLT-4 leukemia = test system: MOLT-4 leukemia
HOP-62 NSCLC = test system: HOP-62 NSCLC
K-562 leukemia = test system: K-562 leukemia
EKVX NSCLC = test system: EKVX NSCLC
CAKI-1 renal = test system: CAKI-1 renal
SF-268 CNS = test system: SF-268 CNS
SNB-75 CNS = test system: SNB-75 CNS
OVCAR-5 ovarian = test system: OVCAR-5 ovarian
MDA-MB-435 = test system: MDA-MB-435
NCI-H23 lung = test system: NCI-H23 lung
PC-3 prostate = test system: PC-3 prostate
UO-31 renal = test system: UO-31 renal
OVCAR-3 ovarian = test system: OVCAR-3 ovarian
COLO 205 colon = test system: COLO 205 colon
DU-145 prostate = test system: DU-145 prostate
MDA-N = test system: MDA-N
KM12 colon = test system: KM12 colon
UACC-257 melanoma = test system: UACC-257 melanoma
A498 renal = test system: A498 renal
NCI-H226 lung = test system: NCI-H226 lung
LOX IMVI melanoma = test system: LOX IMVI melanoma
SK-MEL-28 melanoma = test system: SK-MEL-28 melanoma
SK-MEL-2 melanoma = test system: SK-MEL-2 melanoma
U251 CNS = test system: U251 CNS
BT-549 breast = test system: BT-549 breast
HL-60(TB) leukemia = test system: HL-60(TB) leukemia
MALME-3M melanoma = test system: MALME-3M melanoma
T-47D breast = test system: T-47D breast
M14 melanoma = test system: M14 melanoma
SK-OV-3 ovarian = test system: SK-OV-3 ovarian
SK-MEL-5 melanoma = test system: SK-MEL-5 melanoma
IGROV1 ovarian = test system: IGROV1 ovarian
OVCAR-4 ovarian = test system: OVCAR-4 ovarian
RXF 393 renal = test system: RXF 393 renal
HS 578T breast = test system: HS 578T breast
CCRF-CEM leukemia = test system: CCRF-CEM leukemia
HCC-2998 colon = test system: HCC-2998 colon
NCI/ADR-RES ovarian = test system: NCI/ADR-RES ovarian
A549 NSCLC = test system: A549 NSCLC
SW-620 colon = test system: SW-620 colon
SF-539 CNS = test system: SF-539 CNS
LXFL 529 NSCLC = test system: LXFL 529 NSCLC
SNB-78 CNS = test system: SNB-78 CNS
DMS 273 small cell lung = test system: DMS 273 small cell lung
DLD-1 colon = test system: DLD-1 colon
KM20L2 colon = test system: KM20L2 colon
NCI-H460 lung = test system: NCI-H460 lung

Q: Which results are given for `Cc1ccc2c(c1)C(=O)c1nc(C)ccc1C2=O`?
A: TGI (HCT-116 colon): 60.6 µM; TGI (RPMI-8226 leukemia): 74.1 µM; TGI (MDA-MB-231 breast): 62.1 µM; TGI (SNB-19 CNS): 63.7 µM; TGI (786-0 renal): > 100 µM; TGI (SF-295 CNS): > 100 µM; TGI (HCT-15 colon): 48.1 µM; TGI (UACC-62 melanoma): 67.3 µM; TGI (NCI-H522 lung): 74.2 µM; TGI (OVCAR-8 ovarian): 97.5 µM; TGI (TK-10 renal): > 100 µM; TGI (ACHN renal): > 100 µM; TGI (SN12C renal): 87.9 µM; TGI (SR leukemia): > 100 µM; TGI (HT29 colon): 83 µM; TGI (MCF7 breast): > 100 µM; TGI (MOLT-4 leukemia): > 100 µM; TGI (HOP-62 NSCLC): > 100 µM; TGI (K-562 leukemia): > 100 µM; TGI (EKVX NSCLC): > 100 µM; TGI (CAKI-1 renal): 76.9 µM; TGI (SF-268 CNS): > 100 µM; TGI (SNB-75 CNS): > 100 µM; TGI (OVCAR-5 ovarian): > 100 µM; TGI (MDA-MB-435): 44 µM; TGI (NCI-H23 lung): 56.7 µM; TGI (PC-3 prostate): > 100 µM; TGI (UO-31 renal): 86.2 µM; TGI (OVCAR-3 ovarian): > 100 µM; TGI (COLO 205 colon): 42.7 µM; TGI (DU-145 prostate): > 100 µM; TGI (MDA-N): 39.9 µM; TGI (KM12 colon): > 100 µM; TGI (UACC-257 melanoma): 45.2 µM; TGI (A498 renal): > 100 µM; TGI (NCI-H226 lung): > 100 µM; TGI (LOX IMVI melanoma): > 100 µM; TGI (SK-MEL-28 melanoma): > 100 µM; TGI (SK-MEL-2 melanoma): > 100 µM; TGI (U251 CNS): > 100 µM; TGI (BT-549 breast): > 100 µM; TGI (HL-60(TB) leukemia): 70.3 µM; TGI (MALME-3M melanoma): 24.7 µM; TGI (T-47D breast): > 100 µM; TGI (M14 melanoma): > 100 µM; TGI (SK-OV-3 ovarian): > 100 µM; TGI (SK-MEL-5 melanoma): 19.7 µM; TGI (IGROV1 ovarian): 66.5 µM; TGI (OVCAR-4 ovarian): 89 µM; TGI (RXF 393 renal): > 100 µM; TGI (HS 578T breast): > 100 µM; TGI (CCRF-CEM leukemia): > 100 µM; TGI (HCC-2998 colon): 87.8 µM; TGI (NCI/ADR-RES ovarian): 59.1 µM; TGI (A549 NSCLC): > 100 µM; TGI (SW-620 colon): > 100 µM; TGI (SF-539 CNS): > 100 µM

Q: What does the source list for `C=C(CC(NC(=O)c1ccc(C(CC)Cc2cnc3nc(N)nc(N)c3n2)cc1)C(=O)O)C(=O)O` (configuration not stated)?
A: TGI (HCT-116 colon): > 100 µM; TGI (LXFL 529 NSCLC): > 100 µM; TGI (RPMI-8226 leukemia): > 100 µM; TGI (SNB-19 CNS): > 100 µM; GI50 (786-0 renal): 0.0257 µM; TGI (786-0 renal): 5.17 µM; TGI (SNB-78 CNS): > 100 µM; TGI (HCT-15 colon): > 100 µM; TGI (UACC-62 melanoma): > 100 µM; TGI (OVCAR-8 ovarian): > 100 µM; TGI (TK-10 renal): > 100 µM; TGI (ACHN renal): > 100 µM; GI50 (SN12C renal): 0.0205 µM; TGI (SN12C renal): > 100 µM; TGI (SR leukemia): > 100 µM; TGI (HT29 colon): > 100 µM; TGI (MOLT-4 leukemia): > 100 µM; TGI (HOP-62 NSCLC): 0.742 µM; TGI (K-562 leukemia): > 100 µM; TGI (EKVX NSCLC): > 100 µM; GI50 (SF-268 CNS): 0.0252 µM; TGI (SF-268 CNS): > 100 µM; TGI (SNB-75 CNS): > 100 µM; TGI (DMS 273 small cell lung): > 100 µM; TGI (DLD-1 colon): > 100 µM; TGI (NCI-H23 lung): > 100 µM; GI50 (UO-31 renal): 0.0271 µM; TGI (UO-31 renal): > 100 µM; TGI (KM20L2 colon): > 100 µM; TGI (COLO 205 colon): > 100 µM; TGI (NCI-H460 lung): > 100 µM; GI50 (UACC-257 melanoma): 0.0599 µM; TGI (UACC-257 melanoma): > 100 µM; TGI (NCI-H226 lung): > 100 µM; TGI (LOX IMVI melanoma): > 100 µM; TGI (SK-MEL-28 melanoma): > 100 µM; TGI (U251 CNS): > 100 µM; TGI (HL-60(TB) leukemia): > 100 µM; TGI (M14 melanoma): > 100 µM; GI50 (SK-OV-3 ovarian): 0.0669 µM; TGI (SK-OV-3 ovarian): > 100 µM; TGI (SK-MEL-5 melanoma): > 100 µM; TGI (IGROV1 ovarian): > 100 µM; GI50 (OVCAR-4 ovarian): > 100 µM; TGI (OVCAR-4 ovarian): > 100 µM; TGI (RXF 393 renal): > 100 µM; TGI (CCRF-CEM leukemia): > 100 µM; GI50 (HCC-2998 colon): 0.0265 µM; TGI (A549 NSCLC): > 100 µM; TGI (SF-539 CNS): > 100 µM
